Experimental data as given in ChEMBL document CHEMBL1129099, “Non-peptide fibrinogen receptor antagonists based upon a 4-substituted piperidine scaffold” (Bioorg Med Chem Lett, 1996).

Tests used:
[1] = molecular target: Integrin alpha-IIb/beta-3 (Homo sapiens, UniProt P05106+P08514); test: Inhibition of [125I]- Fg binding to fibrinogen receptor of activated human platelets
Homo sapiens = species on record: Homo sapiens; test: Evaluated for human platelet aggregation.; assay type: functional

Sequence of Integrin alpha-IIb/beta-3 (P05106 27-788 limits assumed): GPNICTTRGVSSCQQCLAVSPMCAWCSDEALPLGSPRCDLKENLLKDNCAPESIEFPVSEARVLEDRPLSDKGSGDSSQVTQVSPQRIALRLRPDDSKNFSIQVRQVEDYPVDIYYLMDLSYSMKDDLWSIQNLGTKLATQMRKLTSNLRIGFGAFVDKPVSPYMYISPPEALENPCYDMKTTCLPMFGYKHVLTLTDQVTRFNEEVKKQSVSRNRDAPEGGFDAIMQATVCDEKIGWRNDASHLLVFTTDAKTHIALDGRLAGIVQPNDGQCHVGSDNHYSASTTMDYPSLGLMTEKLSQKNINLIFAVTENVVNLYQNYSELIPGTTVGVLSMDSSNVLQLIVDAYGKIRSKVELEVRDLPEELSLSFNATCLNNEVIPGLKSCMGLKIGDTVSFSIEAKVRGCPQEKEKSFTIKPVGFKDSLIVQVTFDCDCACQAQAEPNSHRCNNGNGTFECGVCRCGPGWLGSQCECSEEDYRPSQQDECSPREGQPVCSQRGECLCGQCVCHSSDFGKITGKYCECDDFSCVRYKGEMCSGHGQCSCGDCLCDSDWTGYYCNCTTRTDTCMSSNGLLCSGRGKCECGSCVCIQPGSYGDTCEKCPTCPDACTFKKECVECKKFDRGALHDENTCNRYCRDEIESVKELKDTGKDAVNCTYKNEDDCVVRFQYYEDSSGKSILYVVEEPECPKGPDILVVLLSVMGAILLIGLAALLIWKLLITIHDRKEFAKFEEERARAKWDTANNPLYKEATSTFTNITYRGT
Sequence of Integrin alpha-IIb/beta-3 (P08514 32-887 limits assumed): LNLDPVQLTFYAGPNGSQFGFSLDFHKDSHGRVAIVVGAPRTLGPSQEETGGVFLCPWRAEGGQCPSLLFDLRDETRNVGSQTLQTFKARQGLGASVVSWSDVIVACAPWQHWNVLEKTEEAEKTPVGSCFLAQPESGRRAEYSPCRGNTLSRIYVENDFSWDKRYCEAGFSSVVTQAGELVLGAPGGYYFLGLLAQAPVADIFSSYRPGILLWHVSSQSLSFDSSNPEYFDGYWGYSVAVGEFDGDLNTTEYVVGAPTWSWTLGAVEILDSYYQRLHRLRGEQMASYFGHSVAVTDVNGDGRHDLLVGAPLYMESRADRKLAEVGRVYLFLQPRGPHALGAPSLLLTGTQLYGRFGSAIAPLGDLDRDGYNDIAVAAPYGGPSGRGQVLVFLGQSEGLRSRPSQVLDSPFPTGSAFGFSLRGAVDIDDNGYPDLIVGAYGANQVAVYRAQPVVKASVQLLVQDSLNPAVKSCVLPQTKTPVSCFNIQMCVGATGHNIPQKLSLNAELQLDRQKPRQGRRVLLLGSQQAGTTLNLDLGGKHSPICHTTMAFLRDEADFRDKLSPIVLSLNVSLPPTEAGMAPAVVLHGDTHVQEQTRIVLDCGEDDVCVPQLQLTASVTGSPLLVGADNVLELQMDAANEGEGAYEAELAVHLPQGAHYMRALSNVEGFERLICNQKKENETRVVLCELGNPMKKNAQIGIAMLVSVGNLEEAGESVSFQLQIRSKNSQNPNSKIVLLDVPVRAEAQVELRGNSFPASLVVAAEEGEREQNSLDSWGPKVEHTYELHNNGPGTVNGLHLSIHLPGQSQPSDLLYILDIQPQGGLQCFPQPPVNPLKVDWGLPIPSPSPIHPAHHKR
Sequence of Integrin alpha-IIb/beta-3 (P08514 891-1039 limits assumed): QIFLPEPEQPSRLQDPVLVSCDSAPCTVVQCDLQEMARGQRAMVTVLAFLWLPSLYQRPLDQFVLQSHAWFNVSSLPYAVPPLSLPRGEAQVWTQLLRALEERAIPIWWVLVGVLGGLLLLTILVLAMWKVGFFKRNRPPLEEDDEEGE

| SMILES | IC50 [1] | IC50 (Homo sapiens) |
| --- | --- | --- |
| O=C(O)CCCC(=O)N1CCC(CCCC2CCNCC2)CC1 | 3000 nM |  |
| CCCCCN[C@@H](CCC(=O)N1CCC(CCCC2CCNCC2)CC1)C(=O)O | 8400 nM |  |
| CCCCC(=O)N[C@@H](CCC(=O)N1CCC(CCCC2CCNCC2)CC1)C(=O)O | 250 nM |  |
| O=C(O)CCC(=O)N1CCC(CCCC2CCNCC2)CC1 | > 25000 nM |  |
| CCCCS(=O)(=O)N[C@H](CCC(=O)N1CCC(CCCC2CCNCC2)CC1)C(=O)O | > 25000 nM |  |
| CCCCS(=O)(=O)NC(CC(=O)O)CC(=O)N1CCC(CCCC2CCNCC2)CC1 (centres undefined) | 950 nM |  |
| O=C(O)CCCCC(=O)N1CCC(CCCC2CCNCC2)CC1 | 6700 nM |  |
| CCCCS(=O)(=O)N[C@@H](CCC(=O)O)C(=O)N1CCC(CCCC2CCNCC2)CC1 | > 25000 nM |  |
| CCCCS(=O)(=O)N[C@H](CCC(=O)O)C(=O)N1CCC(CCCC2CCNCC2)CC1 | 130 nM |  |
| CCCCCCCCS(=O)(=O)N[C@@H](CCC(=O)N1CCC(CCCC2CCNCC2)CC1)C(=O)O | 70 nM | 130 nM |
| CCCCS(=O)(=O)N[C@@H](CCC(=O)N1CCC(CCCC2CCNCC2)CC1)C(=O)O | 110 nM | 70 nM |

More lines, now with the values ahead:

| IC50 [1] | IC50 (Homo sapiens) | SMILES |
| --- | --- | --- |
| 40 nM | 10 nM | O=C(O)[C@H](CCC(=O)N1CCC(CCCC2CCNCC2)CC1)NS(=O)(=O)c1cccc2ccccc12 |
| 40 nM | 10 nM | O=C(O)[C@H](CCC(=O)N1CCC(CCCC2CCNCC2)CC1)NS(=O)(=O)c1ccc2ccccc2c1 |
| 30 nM | 30 nM | O=C(O)[C@H](CCC(=O)N1CCC(CCCC2CCNCC2)CC1)NS(=O)(=O)c1ccc(-c2ccccc2)cc1 |
| 20 nM | 20 nM | O=C(O)[C@H](CCC(=O)N1CCC(CCCC2CCNCC2)CC1)NS(=O)(=O)Cc1ccccc1 |
| 30 nM |  | O=C(O)[C@H](CCC(=O)N1CCC(CCCC2CCNCC2)CC1)NS(=O)(=O)c1ccccc1 |
| 10 nM | 20 nM | CCCc1ccc(S(=O)(=O)N[C@@H](CCC(=O)N2CCC(CCCC3CCNCC3)CC2)C(=O)O)cc1 |
